Source: the kinase profiling compilation of Christmann-Franck et al. (2016)
“And” between values parts separate entries of the source, which are not always exact repeats. Equal entries are not always repeated.

Assays:
Assay in all cases: KINOMEscan competition binding
Conditions in all cases: compound 10.0 µM
FGFR2 (human) = FGFR2 (human) (UniProt P21802)
CDC2L2 (human) = CDC2L2 (human) (UniProt Q9UQ88)
ABL1 (human) = ABL1 (human) (UniProt P00519)
MAP2K1 (human) = MAP2K1 (human) (UniProt Q02750)
[1] = system: ABL1 (human), P00519 [Q252H]
TIE1 (human) = TIE1 (human) (UniProt P35590)
DCLK2 (human) = DCLK2 (human) (UniProt Q8N568)
MLTK (human) = MLTK (human) (UniProt Q9NYL2)
TXK (human) = TXK (human) (UniProt P42681)
ROS1 (human) = ROS1 (human) (UniProt P08922)
MST4 (human) = MST4 (human) (UniProt Q9P289)
INSR (human) = INSR (human) (UniProt P06213)
Chain of INSR (human) (P06213 whole entry, looked up): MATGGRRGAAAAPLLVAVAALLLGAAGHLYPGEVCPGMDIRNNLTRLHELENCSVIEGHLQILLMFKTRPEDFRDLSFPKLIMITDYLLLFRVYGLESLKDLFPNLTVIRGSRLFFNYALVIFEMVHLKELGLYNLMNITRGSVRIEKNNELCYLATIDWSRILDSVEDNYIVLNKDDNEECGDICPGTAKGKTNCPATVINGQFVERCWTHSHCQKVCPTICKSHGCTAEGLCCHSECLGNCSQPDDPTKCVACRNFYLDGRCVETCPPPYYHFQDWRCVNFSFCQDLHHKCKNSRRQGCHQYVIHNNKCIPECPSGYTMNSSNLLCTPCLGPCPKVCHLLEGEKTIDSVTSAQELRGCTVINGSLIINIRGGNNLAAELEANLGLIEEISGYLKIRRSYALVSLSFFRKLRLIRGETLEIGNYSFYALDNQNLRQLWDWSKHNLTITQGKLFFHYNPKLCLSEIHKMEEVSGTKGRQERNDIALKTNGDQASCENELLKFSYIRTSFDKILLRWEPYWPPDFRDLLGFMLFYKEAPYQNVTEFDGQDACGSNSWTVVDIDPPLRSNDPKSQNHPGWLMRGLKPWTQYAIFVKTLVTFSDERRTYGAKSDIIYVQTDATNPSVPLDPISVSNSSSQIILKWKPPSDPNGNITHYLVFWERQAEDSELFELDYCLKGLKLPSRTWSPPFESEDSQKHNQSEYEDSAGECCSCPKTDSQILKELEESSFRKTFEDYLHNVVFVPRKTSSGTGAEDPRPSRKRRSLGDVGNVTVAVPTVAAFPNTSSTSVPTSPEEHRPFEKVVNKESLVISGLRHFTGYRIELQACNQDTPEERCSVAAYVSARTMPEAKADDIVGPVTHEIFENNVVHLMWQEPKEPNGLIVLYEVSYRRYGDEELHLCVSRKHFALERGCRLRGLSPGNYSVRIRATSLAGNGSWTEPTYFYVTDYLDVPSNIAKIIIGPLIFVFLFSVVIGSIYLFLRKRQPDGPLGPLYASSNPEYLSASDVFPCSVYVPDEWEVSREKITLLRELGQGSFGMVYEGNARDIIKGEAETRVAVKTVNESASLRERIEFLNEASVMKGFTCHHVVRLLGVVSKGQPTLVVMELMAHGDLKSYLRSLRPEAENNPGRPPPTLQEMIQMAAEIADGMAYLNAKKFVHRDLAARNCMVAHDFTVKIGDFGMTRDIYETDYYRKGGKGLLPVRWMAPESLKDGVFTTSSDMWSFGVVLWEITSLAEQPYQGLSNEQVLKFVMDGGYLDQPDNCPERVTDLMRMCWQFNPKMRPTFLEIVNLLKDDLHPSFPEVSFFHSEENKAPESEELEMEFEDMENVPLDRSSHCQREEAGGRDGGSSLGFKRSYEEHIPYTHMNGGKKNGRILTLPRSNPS

STK4 (human) = STK4 (human) (UniProt Q13043)
DDR1 (human) = DDR1 (human) (UniProt Q08345)
NTRK1 (human) = NTRK1 (human) (UniProt P04629)
MAPK7 (human) = MAPK7 (human) (UniProt Q13164)
[2] = system: ABL1 (human), P00519 [H396P]
RIPK1 (human) = RIPK1 (human) (UniProt Q13546)
TGFBR1 (human) = TGFBR1 (human) (UniProt P36897)
PRKCQ (human) = PRKCQ (human) (UniProt Q04759)
ULK1 (human) = ULK1 (human) (UniProt O75385)
EPHA8 (human) = EPHA8 (human) (UniProt P29322)
Chain of EPHA8 (human) (P29322 whole entry, looked up): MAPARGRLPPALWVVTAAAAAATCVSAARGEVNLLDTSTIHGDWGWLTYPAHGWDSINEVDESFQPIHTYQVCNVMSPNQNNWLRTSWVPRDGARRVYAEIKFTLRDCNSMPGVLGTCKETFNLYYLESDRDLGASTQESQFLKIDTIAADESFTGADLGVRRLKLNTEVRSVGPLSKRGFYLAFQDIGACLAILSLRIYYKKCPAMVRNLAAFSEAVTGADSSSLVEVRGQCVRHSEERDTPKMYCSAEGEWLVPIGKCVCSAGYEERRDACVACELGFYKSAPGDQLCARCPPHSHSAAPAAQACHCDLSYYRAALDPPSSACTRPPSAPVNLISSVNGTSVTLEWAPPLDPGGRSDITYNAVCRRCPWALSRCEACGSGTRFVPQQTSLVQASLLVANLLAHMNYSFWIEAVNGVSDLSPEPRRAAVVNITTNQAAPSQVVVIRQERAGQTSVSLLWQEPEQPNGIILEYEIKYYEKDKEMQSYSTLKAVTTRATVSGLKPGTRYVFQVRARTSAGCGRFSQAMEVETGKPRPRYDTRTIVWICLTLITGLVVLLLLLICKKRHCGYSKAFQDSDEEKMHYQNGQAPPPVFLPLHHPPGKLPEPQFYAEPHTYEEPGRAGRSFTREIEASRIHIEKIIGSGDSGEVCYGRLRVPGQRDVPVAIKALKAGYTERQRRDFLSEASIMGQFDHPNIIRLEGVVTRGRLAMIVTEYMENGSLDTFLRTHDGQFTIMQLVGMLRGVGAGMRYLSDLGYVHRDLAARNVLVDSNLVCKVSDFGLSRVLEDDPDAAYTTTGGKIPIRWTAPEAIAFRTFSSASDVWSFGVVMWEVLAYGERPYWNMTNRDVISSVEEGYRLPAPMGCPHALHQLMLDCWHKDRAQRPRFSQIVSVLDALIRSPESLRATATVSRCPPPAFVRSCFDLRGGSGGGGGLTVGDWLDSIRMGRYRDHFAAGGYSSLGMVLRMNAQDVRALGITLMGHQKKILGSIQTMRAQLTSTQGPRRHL

STK32B (human) = STK32B (human) (UniProt Q9NY57)
Chain of STK32B (human) (Q9NY57 whole entry, looked up): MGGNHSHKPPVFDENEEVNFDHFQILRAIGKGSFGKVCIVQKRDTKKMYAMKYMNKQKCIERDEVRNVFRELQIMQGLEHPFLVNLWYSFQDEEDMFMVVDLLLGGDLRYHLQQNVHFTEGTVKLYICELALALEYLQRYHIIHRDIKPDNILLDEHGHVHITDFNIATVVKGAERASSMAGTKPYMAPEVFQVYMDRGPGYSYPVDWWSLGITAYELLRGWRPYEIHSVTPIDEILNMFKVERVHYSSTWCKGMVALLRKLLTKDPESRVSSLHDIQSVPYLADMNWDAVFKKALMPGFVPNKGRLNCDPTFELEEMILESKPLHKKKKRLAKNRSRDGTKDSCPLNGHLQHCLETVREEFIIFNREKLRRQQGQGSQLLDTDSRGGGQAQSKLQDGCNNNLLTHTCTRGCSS

LIMK2 (human) = LIMK2 (human) (UniProt P53671)
NTRK2 (human) = NTRK2 (human) (UniProt Q16620)
Chain of NTRK2 (human) (Q16620 whole entry, looked up): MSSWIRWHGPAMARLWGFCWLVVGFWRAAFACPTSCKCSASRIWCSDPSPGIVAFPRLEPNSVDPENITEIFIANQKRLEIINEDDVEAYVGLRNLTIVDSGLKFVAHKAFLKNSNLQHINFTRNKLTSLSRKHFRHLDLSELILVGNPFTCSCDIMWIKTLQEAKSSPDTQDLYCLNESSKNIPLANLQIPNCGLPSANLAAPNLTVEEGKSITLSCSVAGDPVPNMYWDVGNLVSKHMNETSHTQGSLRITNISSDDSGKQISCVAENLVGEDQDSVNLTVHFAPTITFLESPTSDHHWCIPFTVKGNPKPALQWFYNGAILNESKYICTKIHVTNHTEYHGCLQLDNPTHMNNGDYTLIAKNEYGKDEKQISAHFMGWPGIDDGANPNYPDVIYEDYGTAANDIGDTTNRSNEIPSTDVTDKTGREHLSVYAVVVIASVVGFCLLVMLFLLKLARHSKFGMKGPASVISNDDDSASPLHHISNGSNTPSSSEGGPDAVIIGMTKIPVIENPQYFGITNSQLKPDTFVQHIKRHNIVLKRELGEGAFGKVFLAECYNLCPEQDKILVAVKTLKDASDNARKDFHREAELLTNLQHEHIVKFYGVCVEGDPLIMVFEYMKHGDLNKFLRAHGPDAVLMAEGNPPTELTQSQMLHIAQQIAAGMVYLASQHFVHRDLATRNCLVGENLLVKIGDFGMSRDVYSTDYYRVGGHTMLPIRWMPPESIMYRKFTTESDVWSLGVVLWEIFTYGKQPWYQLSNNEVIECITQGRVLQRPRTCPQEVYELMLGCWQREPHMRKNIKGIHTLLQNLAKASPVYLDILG

PIK3CD (human) = PIK3CD (human) (UniProt O00329)
CDK17 (human) = CDK17 (human) (UniProt Q00537)
FLT1 (human) = FLT1 (human) (UniProt P17948)
SRPK1 (human) = SRPK1 (human) (UniProt Q96SB4)
MAPK14 (human) = MAPK14 (human) (UniProt Q16539)
CDK11B (human) = CDK11B (human) (UniProt P21127)
BMX (human) = BMX (human) (UniProt P51813)
RPS6KA6 KD1 (human) = RPS6KA6 KD1 (human) (UniProt Q9UK32)
Chain of RPS6KA6 KD1 (human) (Q9UK32 whole entry, looked up): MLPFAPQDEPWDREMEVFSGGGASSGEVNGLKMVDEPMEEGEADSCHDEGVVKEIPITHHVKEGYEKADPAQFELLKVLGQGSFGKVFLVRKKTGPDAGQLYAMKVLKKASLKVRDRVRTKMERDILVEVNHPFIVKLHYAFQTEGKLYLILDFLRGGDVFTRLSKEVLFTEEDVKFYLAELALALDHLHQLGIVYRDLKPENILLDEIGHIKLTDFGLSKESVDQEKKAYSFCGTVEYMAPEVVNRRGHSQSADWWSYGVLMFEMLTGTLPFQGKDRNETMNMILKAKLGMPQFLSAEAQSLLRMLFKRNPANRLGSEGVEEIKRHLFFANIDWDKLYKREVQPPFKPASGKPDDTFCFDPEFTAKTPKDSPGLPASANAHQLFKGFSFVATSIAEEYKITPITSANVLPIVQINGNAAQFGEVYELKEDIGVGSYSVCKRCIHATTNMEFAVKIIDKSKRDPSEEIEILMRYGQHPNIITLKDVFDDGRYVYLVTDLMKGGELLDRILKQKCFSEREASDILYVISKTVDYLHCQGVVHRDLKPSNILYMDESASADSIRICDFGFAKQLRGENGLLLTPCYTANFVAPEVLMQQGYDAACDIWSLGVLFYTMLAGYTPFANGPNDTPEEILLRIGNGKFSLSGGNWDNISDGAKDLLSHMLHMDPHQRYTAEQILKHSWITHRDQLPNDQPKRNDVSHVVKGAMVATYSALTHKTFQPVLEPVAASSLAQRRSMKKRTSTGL

PAK2 (human) = PAK2 (human) (UniProt Q13177)
SIK1 (human) = SIK1 (human) (UniProt P57059)
EGFR (human) = EGFR (human) (UniProt P00533)
ERBB4 (human) = ERBB4 (human) (UniProt Q15303)
CHEK1 (human) = CHEK1 (human) (UniProt O14757)
NEK6 (human) = NEK6 (human) (UniProt Q9HC98)
STK35 (human) = STK35 (human) (UniProt Q8TDR2)
PRKCD (human) = PRKCD (human) (UniProt Q05655)
Chain of PRKCD (human) (Q05655 whole entry, looked up): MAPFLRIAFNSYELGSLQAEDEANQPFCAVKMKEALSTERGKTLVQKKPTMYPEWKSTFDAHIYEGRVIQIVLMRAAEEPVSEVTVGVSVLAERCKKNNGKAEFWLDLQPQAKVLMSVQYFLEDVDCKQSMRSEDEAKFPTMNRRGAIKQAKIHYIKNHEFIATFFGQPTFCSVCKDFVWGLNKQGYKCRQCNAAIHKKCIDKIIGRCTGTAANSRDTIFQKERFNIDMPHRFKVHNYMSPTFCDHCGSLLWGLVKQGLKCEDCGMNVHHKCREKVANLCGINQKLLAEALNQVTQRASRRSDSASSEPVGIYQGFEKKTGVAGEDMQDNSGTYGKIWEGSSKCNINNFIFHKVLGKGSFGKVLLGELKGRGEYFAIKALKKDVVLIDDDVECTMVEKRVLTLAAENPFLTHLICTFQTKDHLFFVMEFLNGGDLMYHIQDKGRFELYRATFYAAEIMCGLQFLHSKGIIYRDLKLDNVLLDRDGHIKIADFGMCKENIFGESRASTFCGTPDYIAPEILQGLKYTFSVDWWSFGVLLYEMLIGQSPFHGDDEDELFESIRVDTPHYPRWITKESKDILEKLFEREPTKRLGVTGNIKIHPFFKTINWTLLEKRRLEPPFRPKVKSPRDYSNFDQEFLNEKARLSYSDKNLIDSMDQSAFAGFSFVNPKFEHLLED

[3] = target: JAK2 JH1 catalytic (human) (UniProt O60674)

CN1C(=O)c2ccccc2N(C)c2nc(NS(=O)(=O)c3ccc(N)cc3)ncc21
kinase still bound, per cent of control (FGFR2 (human)): 100% | kinase still bound, per cent of control (CDC2L2 (human)): 100% | kinase still bound, per cent of control (ABL1 (human)): 99% | kinase still bound, per cent of control (MAP2K1 (human)): 100% | kinase still bound, per cent of control [1]: 82% | kinase still bound, per cent of control (TIE1 (human)): 100% | kinase still bound, per cent of control (DCLK2 (human)): 70% | kinase still bound, per cent of control (MLTK (human)): 100% | kinase still bound, per cent of control (TXK (human)): 96% | kinase still bound, per cent of control (ROS1 (human)): 100% | kinase still bound, per cent of control (MST4 (human)): 100% | kinase still bound, per cent of control (INSR (human)): 95% | kinase still bound, per cent of control (STK4 (human)): 71% | kinase still bound, per cent of control (DDR1 (human)): 100% | kinase still bound, per cent of control (NTRK1 (human)): 77% | kinase still bound, per cent of control (MAPK7 (human)): 100% | kinase still bound, per cent of control [2]: 100% | kinase still bound, per cent of control (RIPK1 (human)): 100% | kinase still bound, per cent of control (TGFBR1 (human)): 100% | kinase still bound, per cent of control (PRKCQ (human)): 100% | kinase still bound, per cent of control (ULK1 (human)): 85% | kinase still bound, per cent of control (EPHA8 (human)): 100% | kinase still bound, per cent of control (STK32B (human)): 100% | kinase still bound, per cent of control (LIMK2 (human)): 100% | kinase still bound, per cent of control (NTRK2 (human)): 53% | kinase still bound, per cent of control (PIK3CD (human)): 91% | kinase still bound, per cent of control (CDK17 (human)): 100% | kinase still bound, per cent of control (FLT1 (human)): 100% | kinase still bound, per cent of control (SRPK1 (human)): 100% | kinase still bound, per cent of control (MAPK14 (human)): 100% | kinase still bound, per cent of control (CDK11B (human)): 96% | kinase still bound, per cent of control (BMX (human)): 100% | kinase still bound, per cent of control (RPS6KA6 KD1 (human)): 100% | kinase still bound, per cent of control (PAK2 (human)): 100% | kinase still bound, per cent of control (SIK1 (human)): 100% | kinase still bound, per cent of control (EGFR (human)): 100% | kinase still bound, per cent of control (ERBB4 (human)): 100% | kinase still bound, per cent of control (CHEK1 (human)): 98% | kinase still bound, per cent of control (NEK6 (human)): 100% | kinase still bound, per cent of control (STK35 (human)): 100% | kinase still bound, per cent of control (PRKCD (human)): 100% | kinase still bound, per cent of control [3]: 42%

COc1cc(N2CCN(C)CC2)ccc1Nc1ncc2c(n1)N(C)c1sccc1C(=O)N2C
kinase still bound, per cent of control (FGFR2 (human)): 81% | kinase still bound, per cent of control (CDC2L2 (human)): 100% | kinase still bound, per cent of control (ABL1 (human)): 79% | kinase still bound, per cent of control (MAP2K1 (human)): 90% | kinase still bound, per cent of control [1]: 90% | kinase still bound, per cent of control (TIE1 (human)): 93% | kinase still bound, per cent of control (DCLK2 (human)): 1% | kinase still bound, per cent of control (MLTK (human)): 97% | kinase still bound, per cent of control (TXK (human)): 72% | kinase still bound, per cent of control (ROS1 (human)): 100% | kinase still bound, per cent of control (MST4 (human)): 70% | kinase still bound, per cent of control (INSR (human)): 100% | kinase still bound, per cent of control (STK4 (human)): 100% | kinase still bound, per cent of control (DDR1 (human)): 100% | kinase still bound, per cent of control (NTRK1 (human)): 60% | kinase still bound, per cent of control (MAPK7 (human)): 0.1% | kinase still bound, per cent of control [2]: 82% | kinase still bound, per cent of control (RIPK1 (human)): 100% | kinase still bound, per cent of control (TGFBR1 (human)): 100% | kinase still bound, per cent of control (PRKCQ (human)): 92% | kinase still bound, per cent of control (ULK1 (human)): 6.5% | kinase still bound, per cent of control (EPHA8 (human)): 89% | kinase still bound, per cent of control (STK32B (human)): 100% | kinase still bound, per cent of control (LIMK2 (human)): 83% | kinase still bound, per cent of control (NTRK2 (human)): 83% | kinase still bound, per cent of control (PIK3CD (human)): 48% | kinase still bound, per cent of control (CDK17 (human)): 85% | kinase still bound, per cent of control (FLT1 (human)): 100% | kinase still bound, per cent of control (SRPK1 (human)): 100% | kinase still bound, per cent of control (MAPK14 (human)): 82% | kinase still bound, per cent of control (CDK11B (human)): 85% | kinase still bound, per cent of control (BMX (human)): 100% | kinase still bound, per cent of control (RPS6KA6 KD1 (human)): 96% | kinase still bound, per cent of control (PAK2 (human)): 71% | kinase still bound, per cent of control (SIK1 (human)): 81% | kinase still bound, per cent of control (EGFR (human)): 80% and 87% | kinase still bound, per cent of control (ERBB4 (human)): 88% | kinase still bound, per cent of control (CHEK1 (human)): 60% | kinase still bound, per cent of control (NEK6 (human)): 35% | kinase still bound, per cent of control (STK35 (human)): 89% | kinase still bound, per cent of control (PRKCD (human)): 100% | kinase still bound, per cent of control [3]: 34%

COc1cc(N2CCC(O)CC2)ccc1Nc1ncc2c(n1)N1CCc3cccc(c31)C(=O)N2C
kinase still bound, per cent of control (FGFR2 (human)): 95% | kinase still bound, per cent of control (CDC2L2 (human)): 100% | kinase still bound, per cent of control (ABL1 (human)): 100% | kinase still bound, per cent of control (MAP2K1 (human)): 100% | kinase still bound, per cent of control [1]: 100% | kinase still bound, per cent of control (TIE1 (human)): 94% | kinase still bound, per cent of control (DCLK2 (human)): 0.4% | kinase still bound, per cent of control (MLTK (human)): 100% | kinase still bound, per cent of control (TXK (human)): 100% | kinase still bound, per cent of control (ROS1 (human)): 29% | kinase still bound, per cent of control (MST4 (human)): 99% | kinase still bound, per cent of control (INSR (human)): 53% | kinase still bound, per cent of control (STK4 (human)): 78% | kinase still bound, per cent of control (DDR1 (human)): 100% | kinase still bound, per cent of control (NTRK1 (human)): 82% | kinase still bound, per cent of control (MAPK7 (human)): 0.3% | kinase still bound, per cent of control [2]: 100% | kinase still bound, per cent of control (RIPK1 (human)): 100% | kinase still bound, per cent of control (TGFBR1 (human)): 100% | kinase still bound, per cent of control (PRKCQ (human)): 97% | kinase still bound, per cent of control (ULK1 (human)): 78% | kinase still bound, per cent of control (EPHA8 (human)): 92% | kinase still bound, per cent of control (STK32B (human)): 100% | kinase still bound, per cent of control (LIMK2 (human)): 100% | kinase still bound, per cent of control (NTRK2 (human)): 100% | kinase still bound, per cent of control (PIK3CD (human)): 48% | kinase still bound, per cent of control (CDK17 (human)): 94% | kinase still bound, per cent of control (FLT1 (human)): 100% | kinase still bound, per cent of control (SRPK1 (human)): 100% | kinase still bound, per cent of control (MAPK14 (human)): 61% | kinase still bound, per cent of control (CDK11B (human)): 100% | kinase still bound, per cent of control (BMX (human)): 93% | kinase still bound, per cent of control (RPS6KA6 KD1 (human)): 87% | kinase still bound, per cent of control (PAK2 (human)): 67% | kinase still bound, per cent of control (SIK1 (human)): 88% | kinase still bound, per cent of control (EGFR (human)): 59% and 83% | kinase still bound, per cent of control (ERBB4 (human)): 87% | kinase still bound, per cent of control (CHEK1 (human)): 100% | kinase still bound, per cent of control (NEK6 (human)): 30% | kinase still bound, per cent of control (STK35 (human)): 95% | kinase still bound, per cent of control (PRKCD (human)): 100% | kinase still bound, per cent of control [3]: 69%
